Test systems include TK-10; T47D; UO-31; CCRF-CEM; MCF7; HCT-116; Hs-578T; MDA-MB-231; HT-29; LOX IMVI; UACC-257; HOP-62; OVCAR-5; RPMI-8226; NCI-H226; K562; RXF 393; SK-MEL-5; OVCAR-4; CAKI-1.
What all share (experiment): growth of human tumour cells (NCI), 48 h

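Compound exposure: 48 hours, 5 concentrations, 96-well plates. Here, GI50 denotes the concentration required for 50% inhibition of growth.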 The source made the active and inactive calls. No stated cut-off is given here; in the data, active = GI50 up to about 1.1 µM and inactive = higher.

With `COc1ccc2cc(CNCCOCCOCCNCc3ccc4cc(OC)ccc4c3)ccc2c1`, the GI50 was 1.54 µM (inactive) in the experiment with TK-10; 1.06 µM (active) in the experiment with T47D; 1.32 µM (inactive) in the experiment with UO-31; 0.341 µM (active) with CCRF-CEM; 0.887 µM (active) in the experiment on MCF7; 1.23 µM (inactive) in the experiment on HCT-116. The GI50 is 1.64 µM (inactive) in the experiment on Hs-578T; 1 µM (active) in the experiment with MDA-MB-231; 0.192 µM (active) in the experiment on HT-29; 0.467 µM (active) in the experiment with LOX IMVI; 1.58 µM (inactive) in the experiment on UACC-257; 1.69 µM (inactive) in the experiment on HOP-62. The GI50 in the experiment with OVCAR-5 was 1.85 µM (inactive); in the experiment on RPMI-8226, 0.209 µM (active); in the experiment on NCI-H226 it was 1.55 µM (inactive); in the experiment on K562, 0.118 µM (active); with RXF 393 it was 1.53 µM (inactive); in the experiment on SK-MEL-5, 0.675 µM (active). Besides, the GI50 with OVCAR-4 is 1.92 µM (inactive); with CAKI-1, 1.61 µM (inactive).

Regarding `O=C(Nc1ccccc1)c1cc2cc(CCl)ccc2oc1=O`, the GI50 in the experiment on TK-10 is 39.8 µM (inactive); in the experiment with T47D, > 100 µM (inactive); in the experiment on UO-31 it was > 100 µM (inactive); with CCRF-CEM it was > 100 µM (inactive); with MCF7 it was 26.4 µM (inactive); in the experiment with HCT-116 it was > 100 µM (inactive). The GI50 was 15 µM (inactive) in the experiment with Hs-578T; 64.1 µM (inactive) in the experiment with MDA-MB-231; 8.57 µM (inactive) with HT-29; > 100 µM (inactive) in the experiment with LOX IMVI; > 100 µM (inactive) with UACC-257; 81.7 µM (inactive) with HOP-62. Also, the GI50 is > 100 µM (inactive) with OVCAR-5; > 100 µM (inactive) in the experiment with RPMI-8226; > 100 µM (inactive) in the experiment with NCI-H226; 62.2 µM (inactive) with K562; 33.4 µM (inactive) in the experiment on RXF 393; > 100 µM (inactive) in the experiment with SK-MEL-5. Moreover, the GI50 in the experiment with OVCAR-4 and in the experiment with CAKI-1 was > 100 µM (inactive) each time.

As to `C=C=C(C)[Si](C)(C)C`, the GI50 with TK-10, with T47D, with UO-31, in the experiment with CCRF-CEM, in the experiment with MCF7 and with HCT-116 was > 100 µM (inactive) each time. For the same compound, the GI50 in the experiment on Hs-578T, with MDA-MB-231, with HT-29, in the experiment on LOX IMVI, in the experiment on UACC-257 and with HOP-62 was > 100 µM (inactive) in each case. For the same compound, the GI50 in the experiment with OVCAR-5, with RPMI-8226, in the experiment on NCI-H226, in the experiment on K562, with RXF 393 and in the experiment with SK-MEL-5 was > 100 µM (inactive) in each case. The GI50 with OVCAR-4 and in the experiment on CAKI-1 was > 100 µM (inactive) throughout.

Regarding `O=c1c2ccccc2nc(N/N=C/c2ccc([N+](=O)[O-])cc2)n1-c1ccccc1`, the GI50 in the experiment on TK-10 was 18 µM (inactive); with T47D, 9.59 µM (inactive); with UO-31, > 100 µM (inactive); in the experiment with CCRF-CEM it was > 100 µM (inactive); with MCF7, 20.9 µM (inactive); in the experiment with HCT-116 it was 5.05 µM (inactive). In addition, the GI50 was 6.35 µM (inactive) in the experiment with Hs-578T; 11.7 µM (inactive) in the experiment with MDA-MB-231; > 100 µM (inactive) in the experiment with HT-29; 3.08 µM (inactive) in the experiment on LOX IMVI; 15.6 µM (inactive) with UACC-257; 13.3 µM (inactive) in the experiment on HOP-62. For the same compound, the GI50 in the experiment on OVCAR-5 is > 100 µM (inactive); with RPMI-8226, > 100 µM (inactive); in the experiment on NCI-H226 it was > 100 µM (inactive); with K562 it was 52.1 µM (inactive); with RXF 393 it was 7.87 µM (inactive); with SK-MEL-5, 64.3 µM (inactive). Moreover, the GI50 in the experiment on OVCAR-4 was 6.1 µM (inactive); with CAKI-1, 21.6 µM (inactive).

Regarding `CC(=O)N1CC(=O)N2C(=O)/C(=C/c3ccc(Cl)cc3)N=C12`, the GI50 with TK-10 was > 100 µM (inactive); with T47D it was 53.1 µM (inactive); in the experiment with UO-31 it was > 100 µM (inactive); with CCRF-CEM, 45 µM (inactive); in the experiment with MCF7, 97.9 µM (inactive); in the experiment with HCT-116, > 100 µM (inactive). For the same compound, the GI50 in the experiment on Hs-578T was 30.9 µM (inactive); with MDA-MB-231, > 100 µM (inactive); in the experiment with HT-29, > 100 µM (inactive); in the experiment with LOX IMVI it was > 100 µM (inactive); in the experiment with UACC-257, > 100 µM (inactive); in the experiment on HOP-62, > 100 µM (inactive). The GI50 was > 100 µM (inactive) in the experiment on OVCAR-5; 50.7 µM (inactive) in the experiment on RPMI-8226; > 100 µM (inactive) in the experiment on NCI-H226; 49.1 µM (inactive) with K562; > 100 µM (inactive) with RXF 393; > 100 µM (inactive) in the experiment on SK-MEL-5. Moreover, the GI50 in the experiment on OVCAR-4 and in the experiment with CAKI-1 was > 100 µM (inactive) in each case.

For `CCCCCCCCOC(=O)c1cc([N+](=O)[O-])c(Sc2[nH]cnc3ncnc2-3)c([N+](=O)[O-])c1`, the GI50 is 1.85 µM (inactive) in the experiment with TK-10; 0.465 µM (active) with T47D; 3.85 µM (inactive) in the experiment on UO-31; 0.288 µM (active) in the experiment on CCRF-CEM; 1.59 µM (inactive) in the experiment on MCF7; 1.84 µM (inactive) with HCT-116. The GI50 with Hs-578T is 5.33 µM (inactive); in the experiment on MDA-MB-231 it was 7.19 µM (inactive); in the experiment with HT-29, 1.77 µM (inactive); in the experiment with LOX IMVI, 0.296 µM (active); in the experiment on UACC-257 it was 5.62 µM (inactive); in the experiment with HOP-62 it was 3.03 µM (inactive). Besides, the GI50 in the experiment with OVCAR-5 is 3.15 µM (inactive); in the experiment on RPMI-8226, 0.512 µM (active); with NCI-H226, 2.03 µM (inactive); in the experiment on K562 it was 0.366 µM (active); with RXF 393, 7.69 µM (inactive); in the experiment with SK-MEL-5, 3.57 µM (inactive). In addition, the GI50 in the experiment on OVCAR-4 is 3.49 µM (inactive); in the experiment on CAKI-1, 3.37 µM (inactive).

`O=C1CC2(CCC(O)(c3ccc(Cl)cc3)C(C(=O)c3ccc(Cl)cc3)C2)C(=O)c2ccccc2N1` (stereo not given): the GI50 is 9.86 µM (inactive) with TK-10; 12.4 µM (inactive) in the experiment on T47D; 17.6 µM (inactive) in the experiment on UO-31; 4.61 µM (inactive) in the experiment with CCRF-CEM; 22.7 µM (inactive) in the experiment with MCF7; 6.17 µM (inactive) in the experiment with HCT-116. In addition, the GI50 is 1.48 µM (inactive) in the experiment on Hs-578T; 10.2 µM (inactive) in the experiment with MDA-MB-231; 3.89 µM (inactive) with HT-29; 11.7 µM (inactive) in the experiment on LOX IMVI; 12.2 µM (inactive) in the experiment with UACC-257; 3.35 µM (inactive) in the experiment on HOP-62. For the same compound, the GI50 in the experiment with OVCAR-5 is > 71 µM (inactive); in the experiment with RPMI-8226, 18.6 µM (inactive); in the experiment on NCI-H226, 12.7 µM (inactive); in the experiment on K562, 3.28 µM (inactive); in the experiment with RXF 393, 4.89 µM (inactive); in the experiment on SK-MEL-5, 11.4 µM (inactive). The values for the GI50 with OVCAR-4 and in the experiment with CAKI-1 were 0.877 µM (active) and 9.62 µM (inactive), respectively.

Source of the values: ChEMBL document CHEMBL1201862, “PubChem BioAssay data set” (2004).
